According to ChEMBL document CHEMBL2434927, “Indenoindoles and cyclopentacarbazoles as bioactive compounds: synthesis and biological applications” (Eur J Med Chem, 2013):
pIC50: −log10 of the molar value.

Legend:
[1] = molecular target: Casein kinase II (Homo sapiens, UniProt P19784+P67870+P68400); assay: Inhibition of human CK2; format: protein-complex assay
[2] = Cytotoxicity against human LCLC cells assessed as growth inhibition; format: functional
[3] = Cytotoxicity against human KYSE-70 cells assessed as growth inhibition; format: functional
[4] = system: 5637; assay: Cytotoxicity against human 5637 cells assessed as growth inhibition; format: functional
[5] = system: MCF7; assay: Cytotoxicity against human MCF7 cells assessed as growth inhibition; format: functional
[6] = molecular target: T1, Receptor-type tyrosine-protein kinase FLT3 (Homo sapiens, UniProt P36888); assay: Inhibition of human FLT3
T1 sequence (P36888 whole entry): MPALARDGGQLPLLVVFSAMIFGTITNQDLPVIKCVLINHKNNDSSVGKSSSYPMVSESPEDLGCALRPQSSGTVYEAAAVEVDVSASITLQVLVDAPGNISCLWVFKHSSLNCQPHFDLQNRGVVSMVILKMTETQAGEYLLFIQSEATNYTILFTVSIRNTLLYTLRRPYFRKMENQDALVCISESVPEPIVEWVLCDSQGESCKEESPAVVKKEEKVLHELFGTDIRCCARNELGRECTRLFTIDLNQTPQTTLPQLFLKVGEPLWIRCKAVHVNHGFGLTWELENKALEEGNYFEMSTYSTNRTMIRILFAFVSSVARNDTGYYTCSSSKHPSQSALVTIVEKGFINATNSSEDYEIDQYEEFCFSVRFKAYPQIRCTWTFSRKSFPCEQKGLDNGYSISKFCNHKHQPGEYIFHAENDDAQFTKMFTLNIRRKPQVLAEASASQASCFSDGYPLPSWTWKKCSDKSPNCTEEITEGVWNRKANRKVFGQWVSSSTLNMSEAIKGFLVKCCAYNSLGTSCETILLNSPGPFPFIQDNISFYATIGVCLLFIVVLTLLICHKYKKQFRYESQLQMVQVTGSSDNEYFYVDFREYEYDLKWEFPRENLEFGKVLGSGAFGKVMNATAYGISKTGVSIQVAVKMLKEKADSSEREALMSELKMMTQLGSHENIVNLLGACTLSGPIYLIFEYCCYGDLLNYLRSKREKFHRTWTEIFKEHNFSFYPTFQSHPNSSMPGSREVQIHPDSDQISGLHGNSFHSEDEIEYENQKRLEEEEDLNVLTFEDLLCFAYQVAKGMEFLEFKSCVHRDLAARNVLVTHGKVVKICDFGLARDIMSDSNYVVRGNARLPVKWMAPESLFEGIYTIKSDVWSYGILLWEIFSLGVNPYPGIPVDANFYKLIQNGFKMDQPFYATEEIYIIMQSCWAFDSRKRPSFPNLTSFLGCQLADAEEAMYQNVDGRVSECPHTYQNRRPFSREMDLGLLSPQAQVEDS

[7] = system: SISO; assay: Cytotoxicity against human SISO cells assessed as growth inhibition; format: functional
[8] = molecular target: T2, NUAK family SNF1-like kinase 1 (Homo sapiens, UniProt O60285); assay: Inhibition of human ARK5
T2 sequence (O60285 whole entry): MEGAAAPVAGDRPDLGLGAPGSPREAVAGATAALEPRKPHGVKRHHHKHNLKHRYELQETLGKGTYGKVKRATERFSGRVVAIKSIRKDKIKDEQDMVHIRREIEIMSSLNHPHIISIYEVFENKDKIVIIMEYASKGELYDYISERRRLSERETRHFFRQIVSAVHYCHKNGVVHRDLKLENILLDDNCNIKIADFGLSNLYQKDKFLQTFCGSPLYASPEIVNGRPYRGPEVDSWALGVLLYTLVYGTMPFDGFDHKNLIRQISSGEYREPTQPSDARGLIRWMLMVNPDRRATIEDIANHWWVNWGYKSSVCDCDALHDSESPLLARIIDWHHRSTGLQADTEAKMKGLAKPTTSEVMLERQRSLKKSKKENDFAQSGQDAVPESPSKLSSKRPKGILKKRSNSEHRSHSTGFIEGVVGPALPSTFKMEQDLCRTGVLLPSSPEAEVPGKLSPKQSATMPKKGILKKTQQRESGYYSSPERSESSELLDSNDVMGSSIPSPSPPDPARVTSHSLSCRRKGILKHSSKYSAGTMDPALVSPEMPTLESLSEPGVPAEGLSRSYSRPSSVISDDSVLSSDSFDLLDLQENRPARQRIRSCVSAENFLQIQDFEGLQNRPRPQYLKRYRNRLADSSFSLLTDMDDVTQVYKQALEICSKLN

[9] = system: A-427; assay: Cytotoxicity against human A427 cells assessed as growth inhibition; format: functional
[10] = system: MC-38; assay: Antitumor activity against mouse C38 cells allografted in B6D2F1 mouse assessed as tumor regression at 25 mg/kg, iv administered on days 10, 17 and 24 measured for 10 weeks relative to control; format: functional

Casein kinase II, sequence (P67870 whole entry): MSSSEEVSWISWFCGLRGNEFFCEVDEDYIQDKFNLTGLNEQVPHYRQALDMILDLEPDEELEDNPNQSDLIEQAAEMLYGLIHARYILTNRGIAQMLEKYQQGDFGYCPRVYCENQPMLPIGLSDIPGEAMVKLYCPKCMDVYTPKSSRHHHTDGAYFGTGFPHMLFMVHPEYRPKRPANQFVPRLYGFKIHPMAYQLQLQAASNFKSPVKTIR
Casein kinase II, sequence (P68400 whole entry): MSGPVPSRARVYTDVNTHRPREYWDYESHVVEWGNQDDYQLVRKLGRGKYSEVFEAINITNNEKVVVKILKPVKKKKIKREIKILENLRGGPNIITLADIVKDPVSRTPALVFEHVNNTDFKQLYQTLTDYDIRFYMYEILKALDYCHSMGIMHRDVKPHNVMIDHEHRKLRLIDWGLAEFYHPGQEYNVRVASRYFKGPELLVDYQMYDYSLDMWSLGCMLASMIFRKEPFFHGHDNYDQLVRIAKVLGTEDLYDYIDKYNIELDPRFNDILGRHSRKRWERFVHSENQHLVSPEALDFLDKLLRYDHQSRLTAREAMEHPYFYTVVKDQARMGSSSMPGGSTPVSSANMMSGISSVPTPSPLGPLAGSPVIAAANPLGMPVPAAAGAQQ
Casein kinase II, sequence (P19784 whole entry): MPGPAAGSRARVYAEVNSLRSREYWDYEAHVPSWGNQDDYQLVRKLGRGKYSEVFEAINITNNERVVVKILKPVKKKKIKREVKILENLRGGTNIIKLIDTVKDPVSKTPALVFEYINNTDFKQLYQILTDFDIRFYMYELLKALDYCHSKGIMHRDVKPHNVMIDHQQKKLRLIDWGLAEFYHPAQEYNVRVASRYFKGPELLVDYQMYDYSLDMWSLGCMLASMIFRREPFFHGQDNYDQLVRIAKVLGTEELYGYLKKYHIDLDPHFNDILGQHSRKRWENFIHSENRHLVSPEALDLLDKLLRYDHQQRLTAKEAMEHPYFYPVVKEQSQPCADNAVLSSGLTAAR

With `O=c1ccc(=O)c2c1c1c(=O)c3ccccc3c1n2Cc1ccccc1` as the compound, how does the pIC50 [1] read?
Its pIC50 is 5.83.

Which GI [2] does the source give for `CC(C)n1c2c(c3c1-c1ccccc1C3=O)C(=O)CCC2=O` here?
The GI was 1.3 µM.

And the GI [3]?
The GI was 1.3 µM.

What about the GI [4] of the same compound?
Its GI is 1.3 µM.

And the GI [5]?
Its GI is 1.3 µM.

What about the pIC50 [6] of the same compound?
Its pIC50 is 6.74.

What about the GI [7] of the same compound?
The GI was 1.3 µM.

And the pIC50 [8]?
Its pIC50 is 6.24.

What about the GI [9] of the same compound?
The GI was 1.3 µM.

For `C#C[C@H](C)O/N=C1/c2cc(OC)c(OC)cc2-c2[nH]c3ccc(OCCN(C)C)cc3c21`, which Activity [10] is on record?
The Activity was 100%.
